Entries after “also recorded” stand apart in the source; their conditions may differ.
How the values were obtained:
Type in all cases: in vivo
DSS-induced colitis mice [1] = test: DSS-induced acute colitis in mouse: body weight, colon length, colon weight, general condition; conditions: for Colon length / Colon weight / Colon-to-BW ratio: colon-to-body weight ratio / BW: body weight on the day of sacrifice: sacrifice day 5; for Colon length / Colon weight / Colon-to-BW ratio: colon-to-body weight ratio: geometric mean ± SEM; for BW: body weight on the day of sacrifice: mean ± SEM, n=8
Method: (§1) Induction of acute colitis. Acute colitis was induced by giving mice with 2.5% DSS (MP Biomedicals) in a drinking water for 5 consecutive days. The DSS administration was taken place in two separate days; where the mice were divided into two groups based on their body weight before the day of the DSS administration.
(§2) Route of drug administration.
(§3) Treatment doses. Diacerein was administered at 2 dose levels of 30 and 60 mg/kg, once daily for 5 days.
(§4) Animals. Eight-week-old female C57BL/6 mice were obtained from Japan SLC, Inc. (Japan). All animals used in the study were housed and cared in accordance with the Japanese Pharmacological Society Guidelines for Animal Use.
The average body weight of mice is about 18-22 grams.
The viability, clinical signs and behavior were monitored daily. Body weight was recorded before the treatment. […] Mice were sacrificed by exsanguinations through direct cardiac puncture under isoflurane anesthesia (Pfizer Inc.). Colon length and weight were measured from the end of the cecum to the anus.
(§5) The pharmacological effects of aloe-emodin, emodin, and rhein were also respectively tested using the same protocol described above.

DSS-induced colitis mice [2] = test: DSS-induced acute colitis in mouse: disease activity index (DAI) score; conditions: for DAI: Diacerein 30 and 60 mg/kg; for decrease in fecal blood score than the DSS-induced vehicle group: not statistically significant
Method: as §1, §2, §3, §4
Measurement of disease activity index score. A disease activity index (DAI) was calculated daily by summation of the following parameters: • (i) Weight loss (0=no weight loss; 1=1-5% weight loss; 2=6-10% weight loss; 3=11-15% weight loss; and 4=>15% weight loss); • (ii) Occult blood positivity (0=no bleeding; 1=occult blood test (+); 2=occult blood test (++); 3=occult blood test (+++); and 4=gross bleeding from the anus); and • (iii) Stool consistency (0=normal stools; 2=loose stools; 4=diarrhea).
as §5

DSS-induced colitis mice [3] = test: DSS-induced acute colitis in mouse: histological analysis of HE-stained colon sections; conditions: for loss/damage of crypt and epithelium in colon sections vs DSS-induced vehicle group: FIGS. 5B-C, same protocol, dose not given; for loss of crypt and epithelium in HE-stained colon sections vs Vehicle group: FIG. 5A
Method: as §1, §2, §3, §4
Histological analyses. For HE staining, sections were cut from paraffin blocks of colon tissue prefixed in 10% neutral buffered formalin (Wako Pure Chemical Industries, Japan) and stained with Lillie-Mayer's Hematoxylin (Muto Pure Chemicals Co., Ltd., Japan) and eosin solution (Wako Pure Chemical Industries). Representative photos of the changes observed were captured from each group.
as §5

DSS-induced colitis mice [4] = test: DSS-induced acute colitis in mouse: macroscopic scoring of colon tissue (colonic damage score); conditions: for colonic damage score / diarrhea score / thickness score / ulceration score: sacrifice day 5
Method: as §1, §2, §3, §4
Macroscopic scoring of colon tissue. Colonic damage was scored using the published criteria of measurement (Wallace et al, Gastroenterology, 1992, 102, 18-27). […]

[5] = summary b147-b150, same protocol, dose not given
[6] = summary b148-b149, same protocol, dose not given
[7] = Diacerein 30 mg/kg PO QD day 0-4
[8] = Diacerein 60 mg/kg PO QD day 0-4
[9] = summary b149-b150, same protocol, dose not given
[10] = Mesalazine 20 mg/kg PO QD day 0-4
[11] = Mesalazine 100 mg/kg PO QD day 0-4
[12] = Mesalazine 100 mg/kg, Day 2 and 3
[13] = Mesalazine, dose not given, Day 2 and 3
[14] = both Mesalazine groups (20 and 100 mg/kg), Day 5

O=C1c2cccc(O)c2C(=O)c2c(O)cc(CO)cc21 [Aloe-emodin, 1,8-Dihydroxy-3-(hydroxymethyl)anthraquinone]
colon-to-body weight ratio vs DSS-induced vehicle group (in words) (DSS-induced colitis mice [1]; same protocol, dose not given): significant improvement in the colon-to-body weight ratio | prevention of the body weight loss by DSS-induction (in words) (DSS-induced colitis mice [1]; same protocol, dose not given): able to prevent the body weight loss | DAI results (in words) (DSS-induced colitis mice [2]; same protocol, dose not given): effective | body weight score (in words) (DSS-induced colitis mice [2]; [5]): significant effects on reducing the body weight score | fecal blood score (in words) (DSS-induced colitis mice [2]; [6]): significant effects on reducing the fecal blood score | loss/damage of crypt and epithelium in colon sections vs DSS-induced vehicle group (DSS-induced colitis mice [3]): less loss of crypt and epithelium; also recorded: clearly reduced

CC(=O)Oc1cccc2c1C(=O)c1c(OC(C)=O)cc(C(=O)O)cc1C2=O [Diacerein, 1,8-Diacetoxy-3-carboxyanthraquinone]
Colon length (DSS-induced colitis mice [1]; [7]): 5.6 ± 0.2 cm | Colon weight (DSS-induced colitis mice [1]; [7]): 211 ± 10 mg | Colon-to-BW ratio: colon-to-body weight ratio (DSS-induced colitis mice [1]; [7]): 1.2 ± 0.1% | BW: body weight on the day of sacrifice (DSS-induced colitis mice [1]; [7]): 17.8 ± 0.1 g | Colon length (DSS-induced colitis mice [1]; [8]): 5.4 ± 0.3 cm | Colon weight (DSS-induced colitis mice [1]; [8]): 211 ± 0.1 mg | Colon-to-BW ratio: colon-to-body weight ratio (DSS-induced colitis mice [1]; [8]): 1.2 ± 0.1% | BW: body weight on the day of sacrifice (DSS-induced colitis mice [1]; [8]): 17.8 ± 0.3 g | body weight changes (in words) (DSS-induced colitis mice [1]; Diacerein groups (30 and 60 mg/kg PO QD), 5-day treatment): maintain the body weights close to the Sham animals | increase in body weight on the day of sacrifice than the DSS-induced vehicle group (DSS-induced colitis mice [1]; both Diacerein groups (30 and 60 mg/kg PO QD), significant): 6.6% | fecal blood score vs Vehicle group (in words) (DSS-induced colitis mice [2]; Diacerein 30 mg/kg, during the treatment): decreased slight fecal blood | fecal blood score vs Vehicle group (in words) (DSS-induced colitis mice [2]; Diacerein 60 mg/kg, during the treatment): more significant reduction | DAI (DSS-induced colitis mice [2]; Day 4 (vehicle 6.4)): ~5.1 | DAI (DSS-induced colitis mice [2]; Day 5 (vehicle 7.1)): ~6.3 | body weight score (DSS-induced colitis mice [2]; Diacerein treatment groups (30 and 60 mg/kg), Day 4, p<0.05 (vehicle 1.0)): 0.1-0.3 | body weight score (DSS-induced colitis mice [2]; Diacerein treatment groups (30 and 60 mg/kg), Day 5 (vehicle 1.1)): 0.6-0.9 | decrease in fecal blood score than the DSS-induced vehicle group (DSS-induced colitis mice [2]; both Diacerein groups (30 and 60 mg/kg), Day 5): 11.4% | colonic damage score (DSS-induced colitis mice [4]; [7]): 4.1 ± 0.1 | diarrhea score (DSS-induced colitis mice [4]; [7]): 1.0 ± 0.0 | thickness score (DSS-induced colitis mice [4]; [7]): 1.0 ± 0.0 | ulceration score (DSS-induced colitis mice [4]; [7]): 2.1 ± 0.1 | decrease in colonic damage score than the DSS-induced vehicle group (DSS-induced colitis mice [4]; Diacerein 30 mg/kg, not statistically significant): 6.8% | diarrhea score vs DSS-induced vehicle group (in words) (DSS-induced colitis mice [4]; Diacerein 60 mg/kg): lower effect on diarrhea score than the DSS-induced vehicle group, but the observed effect was not statistically significant | colonic damage score (DSS-induced colitis mice [4]; [8]): 3.8 ± 0.1 | thickness score (DSS-induced colitis mice [4]; [8]): 0.9 ± 0.0 | ulceration score (DSS-induced colitis mice [4]; [8]): 2.0 ± 0.0 | decrease in colonic damage score than the DSS-induced vehicle group (DSS-induced colitis mice [4]; Diacerein 60 mg/kg, significant, p<0.05): 13.6% | loss of crypt and epithelium in HE-stained colon sections vs Vehicle group (DSS-induced colitis mice [3]; Diacerein treatment groups (30 and 60 mg/kg)): less loss of crypt and epithelium

Cc1cc(O)c2c(c1)C(=O)c1cc(O)cc(O)c1C2=O [Emodin, 1,3,8-Trihydroxy-6-methyl-9,10-anthracenedione]
colon weight vs DSS-induced vehicle group (in words) (DSS-induced colitis mice [1]; same protocol, dose not given): significant improvement in colon weight | colon-to-body weight ratio vs DSS-induced vehicle group (in words) (DSS-induced colitis mice [1]; same protocol, dose not given): significant reduction in the colon-to-body weight ratio | prevention of the body weight loss by DSS-induction (in words) (DSS-induced colitis mice [1]; same protocol, dose not given): able to prevent the body weight loss | DAI results (in words) (DSS-induced colitis mice [2]; same protocol, dose not given): effective | body weight score (in words) (DSS-induced colitis mice [2]; [5]): significant effects on reducing | fecal blood score (in words) (DSS-induced colitis mice [2]; [6]): significant effects on reducing | diarrheal stool score (in words) (DSS-induced colitis mice [2]; [9]): significant effects on reducing

Nc1ccc(O)c(C(=O)O)c1 [Mesalazine, 5-Amino-2-hydroxybenzoic acid]
colon weight vs DSS-induced vehicle group (in words) (DSS-induced colitis mice [1]; Mesalazine 20 mg/kg): significant improvement in colon weight | Colon length (DSS-induced colitis mice [1]; [10]): 5.0 ± 0.2 cm | Colon weight (DSS-induced colitis mice [1]; [10]): 202 ± 6 mg | Colon length (DSS-induced colitis mice [1]; [11]): 5.3 ± 0.3 cm | Colon weight (DSS-induced colitis mice [1]; [11]): 202 ± 8 mg | colon weight vs DSS-induced vehicle group (in words) (DSS-induced colitis mice [1]; Mesalazine (60 mg/kg)): lower effect on colon weight than the DSS-induced vehicle group | prevention of the body weight loss by DSS-induction (in words) (DSS-induced colitis mice [1]; Mesalazine (60 mg/kg)): able to prevent the body weight loss | improvement in colon length than the DSS-induced vehicle group (DSS-induced colitis mice [1]; both Mesalazine groups (20 and 100 mg/kg PO QD), not statistically significant): 3-9% | fecal blood score vs Vehicle group (in words) (DSS-induced colitis mice [2]; Mesalazine 20 mg/kg, only at Day 1): significant reduction | effect on DAI (in words) (DSS-induced colitis mice [2]; Mesalazine 20 mg/kg, throughout 5-day treatment): no effect | fecal blood score vs Vehicle group (in words) (DSS-induced colitis mice [2]; Mesalazine 100 mg/kg, Day 1 to 3): significant reduction | Diarrheal stool score vs Vehicle group (in words) (DSS-induced colitis mice [2]; [12]): significant reduction | effect on DAI (in words) (DSS-induced colitis mice [2]; [12]): significant reduction | effect on DAI (in words) (DSS-induced colitis mice [2]; Mesalazine 100 mg/kg, Day 4 or Day 5): no clear reduction in DAI | DAI results (in words) (DSS-induced colitis mice [2]; Mesalazine (60 mg/kg)): effective | body weight score (in words) (DSS-induced colitis mice [2]; Mesalazine (60 mg/kg)): significant effects on reducing the body weight score | diarrheal stool score (in words) (DSS-induced colitis mice [2]; [13]): significantly decreased | fecal blood score (in words) (DSS-induced colitis mice [2]; [13]): significantly decreased | body weight score (DSS-induced colitis mice [2]; both Mesalazine groups (20 and 100 mg/kg), Day 4): 1.0-1.3 | body weight score (DSS-induced colitis mice [2]; [14]): 1.6-1.9 | decrease in fecal blood score than the DSS-induced vehicle group (DSS-induced colitis mice [2]; [14]): 11.4% | diarrhea score vs DSS-induced vehicle group (in words) (DSS-induced colitis mice [4]; Mesalazine 20 mg/kg): significant decrease in diarrhea score | colonic damage score (DSS-induced colitis mice [4]; [10]): 3.5 ± 0.2 | thickness score (DSS-induced colitis mice [4]; [10]): 1.0 ± 0.0 | ulceration score (DSS-induced colitis mice [4]; [10]): 2.0 ± 0.0 | decrease in colonic damage score than the DSS-induced vehicle group (DSS-induced colitis mice [4]; Mesalazine 20 mg/kg, significant, p<0.05): 20.5% | colonic damage score (DSS-induced colitis mice [4]; [11]): 4.0 ± 0.0 | diarrhea score (DSS-induced colitis mice [4]; [11]): 1.0 ± 0.0 | thickness score (DSS-induced colitis mice [4]; [11]): 1.0 ± 0.0 | ulceration score (DSS-induced colitis mice [4]; [11]): 2.0 ± 0.0 | decrease in colonic damage score than the DSS-induced vehicle group (DSS-induced colitis mice [4]; Mesalazine 100 mg/kg, not statistically significant): 9.1% | loss of crypt and epithelium in HE-stained colon sections vs Vehicle group (DSS-induced colitis mice [3]; Mesalazine treatment alone (20 and 100 mg/kg)): No significant effect | loss/damage of crypt and epithelium in colon sections vs DSS-induced vehicle group (DSS-induced colitis mice [3]): less loss of crypt and epithelium | crypt and epithelium damages induced by DSS, microscopic examination of colon sections (DSS-induced colitis mice [3]; Mesalazine treatments (20 and 60 mg/kg)): clearly reduced

O=C(O)c1cc(O)c2c(c1)C(=O)c1cccc(O)c1C2=O [Rhein, 4,5-Dihydroxyanthraquinone-2-carboxylic acid]
colon weight vs DSS-induced vehicle group (in words) (DSS-induced colitis mice [1]; same protocol, dose not given): significant improvement in colon weight | colon-to-body weight ratio vs DSS-induced vehicle group (in words) (DSS-induced colitis mice [1]; same protocol, dose not given): significant reduction in the colon-to-body weight ratio | prevention of the body weight loss by DSS-induction (in words) (DSS-induced colitis mice [1]; same protocol, dose not given): able to prevent the body weight loss | DAI results (in words) (DSS-induced colitis mice [2]; same protocol, dose not given): effective | body weight score (in words) (DSS-induced colitis mice [2]; [5]): significant effects on reducing the body weight score | diarrheal stool score (in words) (DSS-induced colitis mice [2]; [9]): significant effects on reducing the diarrheal stool score | loss/damage of crypt and epithelium in colon sections vs DSS-induced vehicle group (DSS-induced colitis mice [3]): less loss of crypt and epithelium; also recorded: clearly reduced

— patent US10130605B2, “Compositions for use in treating inflammatory bowel diseases and intestinal colitis” (TaiRx Inc., priority 2017, dated 2018)
